Some test systems named below: UACC-62 melanoma; CAKI-1 renal; U251 CNS; OVCAR-3 ovarian; SW-620 colon; SK-MEL-28 melanoma; EKVX NSCLC; RXF 393 renal; T-47D breast; HL-60(TB) leukemia.
Experiment in all cases: NCI-60 cell line screen, 48 h

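All cell lines were grown in 96-well plates and treated with compound for 48 hours. At the GI50, growth is halved. The concentration for full growth arrest is given as TGI.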

For the molecule `CC1(C)[C@@H](Cn2ccc(=O)[nH]c2=O)CC[C@@]1(C)CO`, the TGI in the assay on UACC-62 melanoma, in the assay with CAKI-1 renal, in the assay with U251 CNS, in the assay on OVCAR-3 ovarian, in the assay with SW-620 colon and in the assay with SK-MEL-28 melanoma was over 100 µM in each case. The TGI in the assay with EKVX NSCLC, in the assay on RXF 393 renal and in the assay with T-47D breast was over 100 µM in each case.

With `[N-]=[N+]=Nc1c([N+](=O)[O-])c(=O)n(-c2ccccc2)c2ccccc12`, the TGI is 59 µM with UACC-62 melanoma; 56.3 µM in the assay on CAKI-1 renal; 49.3 µM in the assay with U251 CNS; 22.7 µM in the assay on OVCAR-3 ovarian; 58.4 µM in the assay on SW-620 colon; 80.5 µM in the assay on SK-MEL-28 melanoma. Moreover, the TGI with EKVX NSCLC was 64.5 µM; with RXF 393 renal it was 38.9 µM; in the assay on T-47D breast, over 100 µM.

Take `CCn1c(-c2ccccc2)cs/c1=N\C(P(=O)(O)O)P(=O)(O)O`: the TGI with HL-60(TB) leukemia, in the assay with UACC-62 melanoma, with CAKI-1 renal, with U251 CNS, with OVCAR-3 ovarian and in the assay on SW-620 colon was over 100 µM each time. Besides, the TGI in the assay on SK-MEL-28 melanoma, in the assay with EKVX NSCLC and in the assay with RXF 393 renal was over 100 µM each time.

Regarding `Cc1ccnc2[nH]c(-c3ccc4ccccc4c3)cc(=O)c12`, the GI50 in the assay with HL-60(TB) leukemia was 202 nM; with CAKI-1 renal, 2390 nM; with U251 CNS, 644 nM; in the assay on OVCAR-3 ovarian, 1290 nM. Moreover, the TGI in the assay with HL-60(TB) leukemia came to 0.609 µM; in the assay with UACC-62 melanoma, 9 µM; with CAKI-1 renal, 14.4 µM; in the assay on U251 CNS, 10.4 µM; in the assay with OVCAR-3 ovarian, 4.51 µM; with SW-620 colon, 13.9 µM. The TGI in the assay with SK-MEL-28 melanoma turned out to be 14.9 µM; in the assay with EKVX NSCLC, 26.8 µM; with T-47D breast it was 34.6 µM.

`CO[C@@]12C[C@@H](C)C3=CCC(C)=C3CC1=C(C)C(=O)O2`: the TGI with HL-60(TB) leukemia, with UACC-62 melanoma, with CAKI-1 renal, with U251 CNS, with OVCAR-3 ovarian and in the assay on SW-620 colon was over 100 µM each time. The TGI with SK-MEL-28 melanoma and in the assay with EKVX NSCLC was over 100 µM in each case.

As to `CC(=O)CCn1c(=S)sc2ccccc21`, the TGI in the assay on HL-60(TB) leukemia, with UACC-62 melanoma, in the assay with CAKI-1 renal, in the assay with U251 CNS, with OVCAR-3 ovarian and with SW-620 colon was over 100 µM each time. For the same molecule, the TGI in the assay with SK-MEL-28 melanoma, with EKVX NSCLC and in the assay on RXF 393 renal was over 100 µM each time.

Consider `Cc1ccc(-n2cnc(C(=N)C#N)c2N)cc1`, for which the TGI in the assay with HL-60(TB) leukemia, in the assay on UACC-62 melanoma, with CAKI-1 renal, in the assay on U251 CNS, with OVCAR-3 ovarian and with SW-620 colon was over 100 µM throughout. The TGI in the assay with SK-MEL-28 melanoma, in the assay with EKVX NSCLC and in the assay with T-47D breast was over 100 µM each time.

As to `O=C(/C=C/c1ccccc1)Oc1cccc(O)c1`, the TGI is 41.2 µM in the assay with HL-60(TB) leukemia; over 100 µM with UACC-62 melanoma; over 100 µM in the assay with CAKI-1 renal; over 100 µM in the assay on U251 CNS; over 100 µM in the assay with OVCAR-3 ovarian; 37.9 µM with SW-620 colon. Further, the TGI in the assay with SK-MEL-28 melanoma is 66.8 µM; with RXF 393 renal it was over 100 µM; in the assay on T-47D breast, over 100 µM.

As to `Cc1ccc(-c2c(C#N)c(-c3ccc(C)cc3)n(NS(=O)(=O)c3ccccc3)c(=O)c2C#N)cc1`, the TGI in the assay on UACC-62 melanoma, in the assay on CAKI-1 renal, in the assay on U251 CNS, in the assay with SW-620 colon, with SK-MEL-28 melanoma and in the assay with EKVX NSCLC was over 100 µM each time. The molecule further came in with a TGI with RXF 393 renal of over 100 µM.

In the case of `CCOC(=O)NC(Nc1ccc(C)cc1)(C(F)(F)F)C(F)(F)F`, the TGI with HL-60(TB) leukemia, with UACC-62 melanoma, with U251 CNS, in the assay on OVCAR-3 ovarian, in the assay with SW-620 colon and in the assay on SK-MEL-28 melanoma was over 100 µM throughout. The TGI with T-47D breast is over 100 µM.

As to `O=C1/C(=C/c2ccc(Br)s2)NC(=S)N1c1ccccc1`, the TGI in the assay with HL-60(TB) leukemia, in the assay with UACC-62 melanoma, with CAKI-1 renal, with U251 CNS, with OVCAR-3 ovarian and with SW-620 colon was over 100 µM each time. In addition, the TGI in the assay with SK-MEL-28 melanoma, in the assay on EKVX NSCLC and in the assay with RXF 393 renal was over 100 µM throughout.

Take `CCN(CC)Cc1ccc(C(=S)Nc2ccc(Cl)cc2)s1`: the TGI was 10.5 µM with HL-60(TB) leukemia; 23 µM with UACC-62 melanoma; 26.2 µM in the assay on CAKI-1 renal; 26.2 µM with U251 CNS; 37.7 µM with OVCAR-3 ovarian; 36.8 µM in the assay on SW-620 colon. Also, the TGI was determined as 20.8 µM with SK-MEL-28 melanoma, 19.4 µM with EKVX NSCLC and 34.2 µM in the assay with T-47D breast.

For `O=C1c2ccccc2C(=O)c2c(NCC(O)CO)ccc(NCC(O)CO)c21` (stereo not drawn), the TGI in the assay on HL-60(TB) leukemia, in the assay with UACC-62 melanoma, in the assay on CAKI-1 renal, in the assay with U251 CNS, in the assay with OVCAR-3 ovarian and with SW-620 colon was over 100 µM each time. The TGI in the assay on SK-MEL-28 melanoma, with EKVX NSCLC and in the assay with T-47D breast was over 100 µM each time.

In the case of `c1ccc(N=C(N2CCCC2)N(CCN2CCCC2)c2ccccc2)cc1`, the TGI in the assay with HL-60(TB) leukemia, in the assay with UACC-62 melanoma, in the assay with CAKI-1 renal, in the assay with U251 CNS, in the assay with OVCAR-3 ovarian and in the assay with SW-620 colon was over 100 µM throughout. The TGI in the assay on SK-MEL-28 melanoma, in the assay on EKVX NSCLC and in the assay on T-47D breast was over 100 µM throughout.

`CCOC(=O)Nc1[nH]cc(-c2ccccc2)c1C#N`: the TGI with HL-60(TB) leukemia, with UACC-62 melanoma, with U251 CNS, with OVCAR-3 ovarian, with SW-620 colon and in the assay on SK-MEL-28 melanoma was over 100 µM each time. The TGI with EKVX NSCLC is over 100 µM.

In the case of `CC1(C)CC(=O)C(C=NC(=S)c2ccccc2)=C(O)C1`, the TGI in the assay with HL-60(TB) leukemia, with UACC-62 melanoma, in the assay with CAKI-1 renal, in the assay with U251 CNS, in the assay with OVCAR-3 ovarian and in the assay on SW-620 colon was over 100 µM in each case. Further, the TGI with SK-MEL-28 melanoma and with EKVX NSCLC was over 100 µM throughout.

In the case of `CN(CCSCCN(C)C(=O)OC(C)(C)C)C(=O)OC(C)(C)C`, the TGI in the assay on UACC-62 melanoma, with CAKI-1 renal, in the assay with U251 CNS, in the assay on OVCAR-3 ovarian, with SW-620 colon and in the assay with SK-MEL-28 melanoma was over 100 µM in each case. The same molecule came in with a TGI in the assay with EKVX NSCLC of over 100 µM.

Take `O=C(O)CCCc1nc2c(n1Cc1ccccc1)C(=O)c1ccccc1C2=O`: the TGI was 88.3 µM in the assay on HL-60(TB) leukemia; over 100 µM in the assay with UACC-62 melanoma; over 100 µM in the assay with CAKI-1 renal; over 100 µM with U251 CNS; 74.7 µM in the assay on OVCAR-3 ovarian; over 100 µM with SW-620 colon. For the same molecule, the TGI with SK-MEL-28 melanoma, in the assay with EKVX NSCLC and with T-47D breast was over 100 µM in each case.

In the case of `CC1=NN(c2nc(N)nc(/C(C#N)=C\c3ccc([N+](=O)[O-])s3)n2)C(C)(C)C1`, the TGI in the assay with UACC-62 melanoma was 2.25 µM; with CAKI-1 renal, over 21 µM; in the assay with U251 CNS, 0.221 µM; with OVCAR-3 ovarian, 0.404 µM; in the assay with SK-MEL-28 melanoma, 1.21 µM; in the assay with EKVX NSCLC, 4.28 µM. In the assay on T-47D breast, the TGI was 0.264 µM.

Turning to `COc1cc(C2C3C=CC=C4CC=CC(=C43)C3CCC(=O)N32)cc(OC)c1OC` (stereo not drawn), the TGI in the assay with HL-60(TB) leukemia, in the assay on UACC-62 melanoma, with U251 CNS, in the assay on OVCAR-3 ovarian, in the assay on SW-620 colon and with SK-MEL-28 melanoma was over 100 µM each time. The TGI with EKVX NSCLC and in the assay with T-47D breast was over 100 µM throughout.

In the case of `Fc1ccc2c(c1)nc1n2C(c2c(Cl)cccc2Cl)SC1` (stereo not drawn), the TGI with HL-60(TB) leukemia is 62.3 µM; with UACC-62 melanoma it was 26.2 µM; in the assay with CAKI-1 renal, 25 µM; in the assay with U251 CNS it was 25.8 µM; in the assay with OVCAR-3 ovarian, 26 µM; with SW-620 colon, 27.6 µM. Besides, the results for the TGI with SK-MEL-28 melanoma, in the assay on RXF 393 renal and with T-47D breast were 24.3 µM, 31.9 µM and 38.4 µM, respectively.

For `COc1cc(OC)c2nc(C)c(CCCl)c(Cl)c2c1`, the TGI in the assay on HL-60(TB) leukemia, in the assay with UACC-62 melanoma, in the assay on CAKI-1 renal, with U251 CNS, with OVCAR-3 ovarian and in the assay with SW-620 colon was over 100 µM in each case. Further, the TGI with SK-MEL-28 melanoma, in the assay on EKVX NSCLC and in the assay on RXF 393 renal was over 100 µM in each case.

For the molecule `O=c1oc2ccccc2cc1-c1cc2ccccn2c1`, the TGI in the assay with HL-60(TB) leukemia, in the assay on UACC-62 melanoma, in the assay on CAKI-1 renal, in the assay on U251 CNS, in the assay with OVCAR-3 ovarian and in the assay with SW-620 colon was over 100 µM in each case. Besides, the TGI with SK-MEL-28 melanoma, in the assay with EKVX NSCLC and in the assay with RXF 393 renal was over 100 µM throughout.

The values above are taken from PubChem BioAssay (NCI).
